The values below come from patent publication US7115632B1, “Sulfonyl aryl or heteroaryl hydroxamic acid compounds” (priority 1999, dated 2006).

Structures can show the parent of a compound that is named as a salt. Some results are limits rather than exact numbers.

Series [1] concerns the target T1, MMP-13 (Homo sapiens, UniProt P45452).
T1 construct: made in house; host or cells: insect cells, baculovirus expression
The experiment in a line: In vitro metalloprotease inhibition, fluorogenic MCA peptide substrate. In kind it is biochemical. The conditions noted are these: Inhibition Table B.
Description: (§5) The expressed enzyme was purified first over a heparin agarose column and then over a chelating zinc chloride column. The proenzyme was activated by APMA for use in the assay.

The target in series [2] is T2, MMP-2 (Homo sapiens, UniProt P08253).
T2 construct: made in house; provided by Dr. Gregory Goldberg, Washington University
T2 sequence (P08253 110-660): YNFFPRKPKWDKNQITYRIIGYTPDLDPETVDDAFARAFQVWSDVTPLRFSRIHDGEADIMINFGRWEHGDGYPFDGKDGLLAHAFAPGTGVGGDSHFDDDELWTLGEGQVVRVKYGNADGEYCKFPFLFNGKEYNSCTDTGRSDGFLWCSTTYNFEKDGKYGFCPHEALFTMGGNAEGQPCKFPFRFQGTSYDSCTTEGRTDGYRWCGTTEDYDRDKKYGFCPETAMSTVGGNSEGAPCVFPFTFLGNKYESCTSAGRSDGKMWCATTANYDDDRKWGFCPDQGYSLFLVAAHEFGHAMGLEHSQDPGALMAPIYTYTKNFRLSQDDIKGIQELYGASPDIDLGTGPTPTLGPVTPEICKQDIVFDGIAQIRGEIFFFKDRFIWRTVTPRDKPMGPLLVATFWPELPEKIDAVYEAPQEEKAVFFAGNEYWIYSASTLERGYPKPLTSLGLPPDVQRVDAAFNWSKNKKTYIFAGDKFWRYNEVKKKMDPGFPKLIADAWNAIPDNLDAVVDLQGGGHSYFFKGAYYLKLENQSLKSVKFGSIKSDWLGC
Described as above. In kind it is biochemical. Particulars: Inhibition Table B.

For series [3], the target named is T3, MMP-9 (Homo sapiens, UniProt P14780).
T3 construct: made in house; host or cells: transfected HT-1080 cells (provided by Dr. Harold Welgus)
T3 sequence (P14780 107-707 limits assumed): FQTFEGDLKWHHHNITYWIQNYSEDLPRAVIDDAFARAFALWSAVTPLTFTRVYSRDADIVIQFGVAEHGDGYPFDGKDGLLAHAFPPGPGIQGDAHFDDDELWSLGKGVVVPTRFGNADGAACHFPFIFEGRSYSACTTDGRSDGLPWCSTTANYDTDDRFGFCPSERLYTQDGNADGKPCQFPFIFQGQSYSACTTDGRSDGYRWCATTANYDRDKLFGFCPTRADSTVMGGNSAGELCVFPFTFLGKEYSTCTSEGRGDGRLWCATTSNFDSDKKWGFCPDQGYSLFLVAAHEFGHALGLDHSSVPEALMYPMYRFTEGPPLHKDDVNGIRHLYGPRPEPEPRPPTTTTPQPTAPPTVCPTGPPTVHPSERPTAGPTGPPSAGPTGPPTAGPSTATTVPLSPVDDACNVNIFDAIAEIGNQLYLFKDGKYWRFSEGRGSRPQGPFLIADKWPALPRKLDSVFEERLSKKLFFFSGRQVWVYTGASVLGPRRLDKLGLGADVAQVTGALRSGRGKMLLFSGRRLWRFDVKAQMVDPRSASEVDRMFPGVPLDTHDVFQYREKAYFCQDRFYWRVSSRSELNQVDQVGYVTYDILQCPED
The series is described as above. In kind it is biochemical. Particulars: Inhibition Table B. The method, then: (§1) Briefly, 4-aminophenylmercuric acetate (APMA) or trypsin-activated MMPs were incubated with various concentrations of the inhibitor compound at room temperature for 5 minutes.
MMP-1 expressed in transfected HT-1080 cells was provided by Dr. Harold Welgus of Washington University, St. Louis, Mo. The enzyme was also activated using APMA and was then purified over a hydroxamic acid column. Dr. Welgus also provided transfected HT-1080 cells that expressed MMP-9. Transfected cells that expressed MMP-2 were provided by Dr. Gregory Goldberg, also of Washington University. Further specifics for preparation and use of these enzymes can be found in the scientific literature describing these enzymes. See, for example, Enzyme Nomenclature, Academic Press, San Diego, Calif. (1992) and the citations therein, and Frije et al., J. Biol. Chem., 26(24): 16766–16773 (1994).
(§2) MCA-ProLeuGlyLeuDpaAlaArgNH2, wherein MCA is methoxycoumarin and Dpa is 3-(2,4-dinitrophenyl)-L-2,3-diaminopropionyl alanine.
(§3) The buffer used for assays contained 100 mM Tris-HCl, 100 mM NaCl, 10 mM CaCl2 and 0.05 percent polyethyleneglycol (23) lauryl ether at a pH value of 7.5.
(§4) The ID50 values were calculated from those values.

Series [4] has as its target MMP-3 (Homo sapiens, UniProt P08254). The series is described as above. In kind it is biochemical. The conditions noted are these: Inhibition Table B.
Series [5] addresses MT1-MMP (Homo sapiens, UniProt P50281). Described as above. The conditions noted are these: Inhibition Table B. In kind it is biochemical. The method, then:
as §1, §2, §3, §4

The target in series [6] is MMP-8 (Homo sapiens, UniProt P22894). The series is described as above. In kind it is biochemical. The conditions noted are these: Inhibition Table B. The method, then:
as §1, §2, §3, §4

The target of series [7] is T4, MMP-1 (Homo sapiens, UniProt P03956).
T4 construct: made in house; host or cells: transfected HT-1080 cells (provided by Dr. Harold Welgus, Washington University)
T4 sequence (P03956 100-469): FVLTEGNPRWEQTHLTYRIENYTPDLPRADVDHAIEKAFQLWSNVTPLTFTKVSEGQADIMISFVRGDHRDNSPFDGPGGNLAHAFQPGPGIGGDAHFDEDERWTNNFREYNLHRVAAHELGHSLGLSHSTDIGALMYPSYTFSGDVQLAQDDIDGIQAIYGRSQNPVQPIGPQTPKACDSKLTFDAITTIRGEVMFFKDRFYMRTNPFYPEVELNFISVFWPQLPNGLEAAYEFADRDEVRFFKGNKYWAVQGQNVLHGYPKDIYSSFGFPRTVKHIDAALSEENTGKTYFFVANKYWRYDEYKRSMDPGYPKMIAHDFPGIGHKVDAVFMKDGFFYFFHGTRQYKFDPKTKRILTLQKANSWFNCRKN
The description is as above. In kind it is biochemical. Particulars: Inhibition Table B.
Description: as §5

Series [8] relates to solid tumor cancers (colorectal, pancreatic, ovarian, prostate). The conditions noted are these: cited from earlier work.

Sequence of MMP-3 (P08254 100-477, species assumed): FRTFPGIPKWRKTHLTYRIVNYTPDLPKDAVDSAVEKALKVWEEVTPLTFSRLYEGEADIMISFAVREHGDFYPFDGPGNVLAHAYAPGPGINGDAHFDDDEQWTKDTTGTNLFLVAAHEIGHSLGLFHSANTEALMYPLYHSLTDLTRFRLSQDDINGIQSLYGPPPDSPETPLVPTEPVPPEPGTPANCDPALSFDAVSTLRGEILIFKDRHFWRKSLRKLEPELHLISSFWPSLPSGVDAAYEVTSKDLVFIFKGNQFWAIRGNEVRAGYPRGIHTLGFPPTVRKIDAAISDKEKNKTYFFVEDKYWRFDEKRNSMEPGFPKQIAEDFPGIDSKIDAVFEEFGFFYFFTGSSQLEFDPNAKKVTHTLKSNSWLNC
Sequence of MMP-8 (P22894 101-467, species assumed): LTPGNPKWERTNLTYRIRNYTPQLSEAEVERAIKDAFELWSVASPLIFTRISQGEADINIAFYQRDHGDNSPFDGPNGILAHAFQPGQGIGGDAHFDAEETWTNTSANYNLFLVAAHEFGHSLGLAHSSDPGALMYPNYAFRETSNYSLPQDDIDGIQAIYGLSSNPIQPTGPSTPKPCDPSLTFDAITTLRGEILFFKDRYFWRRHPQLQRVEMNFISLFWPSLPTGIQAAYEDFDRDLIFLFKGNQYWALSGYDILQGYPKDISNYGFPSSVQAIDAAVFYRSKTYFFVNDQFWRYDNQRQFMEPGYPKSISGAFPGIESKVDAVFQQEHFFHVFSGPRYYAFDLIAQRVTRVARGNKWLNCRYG

As to `COc1ccccc1-c1ccc(OC2CCN(S(=O)(=O)c3ccc(OC)c(OC)c3C(=O)NO)CC2)cc1` [Example 22], the concentration for half-maximal inhibition (IC50) (usually the point on the concentration scale where inhibition reaches its midpoint) in series [1] stood at 0.0055 µM; in series [2], 0.0155 µM; in series [3], 0.3 µM; in series [4] it was 0.17 µM; in series [5], 2.5 µM; in series [6] it was 0.8 µM.
For the compound `COc1ccc(S(=O)(=O)N2CCC(Sc3ccccc3)CC2)c(C(=O)NO)c1OC` [Example 24, N-Hydroxy-2,3-dimethoxy-6-[[4-(phenylthio)-1-piperidinyl]sulfonyl]benzamide], the IC50 in series [1] is 0.003 µM; in series [2], 0.0009 µM; in series [3] it was 0.01 µM; in series [7], more than 10 µM; in series [4], 0.4 µM; in series [5], 0.0254 µM. This compound had an IC50 in series [6] of 0.0107 µM.
`COc1ccc(S(=O)(=O)N2CCN(c3ccc(C(F)(F)F)cc3)CC2)c(C(=O)NO)c1OC` [Example 26, N-Hydroxy-2,3-dimethoxy-6-[[4-[4-(trifluoromethyl)phenyl]-1-piperazinyl]sulfonyl]benzamide]: the IC50 is 0.04 µM in series [1]; 0.0065 µM in series [2]; 0.97 µM in series [3]; more than 10 µM in series [7]; 1.75 µM in series [4]; 1.92 µM in series [5]. This compound also returned an IC50 in series [6] of 0.0372 µM.
Consider `COc1ccc(S(=O)(=O)N2CCC(Oc3ccc(-c4cccc(C(F)(F)F)c4)cc3)CC2)c(C(=O)NO)c1OC` [Example 27, N-Hydroxyl-2,3-dimethoxy-6-[[4-[[3′-(trifluoromethyl)[1,1′-biphenyl]-4-yl]oxy]-1-piperidinyl]sulfonyl]benzamide], for which the 50% inhibitory concentration (IC50) in series [1] is 0.003 µM; in series [2], 0.0033 µM; in series [3], 0.52 µM; in series [7], more than 10 µM; in series [4], 0.3 µM; in series [5], 0.69 µM. In series [6], this compound yielded a 50% inhibitory concentration (IC50) of 0.21 µM.
On to `COc1ccc(S(=O)(=O)N2CCC(Oc3ccc(OC(F)(F)F)cc3)CC2)c(C(=O)NO)c1OC` [Example 33], for which the IC50 is 0.005 µM in series [1]; 0.0009 µM in series [2]; 0.0015 µM in series [3]; more than 10 µM in series [7]; 0.1 µM in series [4]; 0.36 µM in series [5].
On to `O=C(NO)c1c(S(=O)(=O)N2CCC(Oc3ccc(C(F)(F)F)cc3)CC2)ccc2c1OCO2` [Example 36], for which the half-inhibitory concentration (IC50) is 0.018 µM in series [1]; 0.003 µM in series [2]; 0.008 µM in series [3]; more than 10 µM in series [7]; 0.6 µM in series [4]; 0.3 µM in series [5]. In addition, 0.0122 µM corresponded to half-maximal inhibition in series [6] (IC50).
Consider `COc1ccc(S(=O)(=O)N2CCC(Oc3ccc(-c4ccccc4C(F)(F)F)cc3)CC2)c(C(=O)NO)c1OC` [Example 38, N-Hydroxy-2,3-dimethoxy-6-[[4-[[2′-(trifluoromethyl)[1,1′-biphenyl]-4-yl]oxy]-1-piperidinyl]sulfonyl]benzamide], for which the half-maximal inhibitory concentration (IC50) came to 0.082 µM in series [1], 0.02 µM in series [2] and 1.7 µM in series [6].
Regarding `COc1ccc(C(C)C)cc1-c1ccc(OC2CCN(S(=O)(=O)c3ccc(OC)c(OC)c3C(=O)NO)CC2)cc1` [Example 39], the results for the 50% inhibitory concentration (IC50) in series [1], in series [2] and in series [6] were 0.1 µM, 0.12 µM and 0.4 µM, respectively.
On to `CCOc1ccccc1-c1ccc(OC2CCN(S(=O)(=O)c3ccc(OC)c(OC)c3C(=O)NO)CC2)cc1` [Example 40], for which the 50% inhibitory concentration (IC50) in series [1] was 0.05 µM; in series [2], 0.08 µM; in series [6] it was 4.4 µM.
Consider `COc1ccc(N2CCN(S(=O)(=O)c3ccc(OC)c(OC)c3C(=O)NO)CC2)cc1` [Example 41, N-Hydroxy-2,3-dimethoxy-6-[[4-(4-methoxyphenyl)-1-piperazinyl]sulfonyl]benzamide, monohydrochloride], for which the IC50 in series [1] was 0.1 µM; in series [2] it was 0.006 µM; in series [3], 0.47 µM; in series [7] it was more than 10 µM; in series [4], 8 µM; in series [5] it was 4 µM. Further, the concentration for half-maximal inhibition (IC50) in series [6] is 0.12 µM.
On to `COc1ccc(OC2CCN(S(=O)(=O)c3ccc(OC)c(OC)c3C(=O)NO)CC2)cc1` [Example 45], for which the IC50 in series [1] is 0.0139 µM; in series [2], 0.0018 µM; in series [3] it was 0.003 µM; in series [7] it was more than 10 µM; in series [4] it was 0.9 µM; in series [5], 0.3 µM. The IC50 in series [6] was found to be 0.0114 µM.
Consider `COc1ccc(S(=O)(=O)N2CCC(Oc3ccc4c(c3)OCO4)CC2)c(C(=O)NO)c1OC` [Example 50, 6-[[4-(1,3-Benzodioxole-5-yloxy)-1-piperinyl]sulfonyl]-N-hydroxy-2,3-dimethoxybenzamide], for which the 50% inhibitory concentration (IC50) in series [1] was 0.0186 µM; in series [2], 0.0011 µM; in series [3], 0.009 µM; in series [7] it was more than 10 µM; in series [4], 1.3 µM; in series [5] it was 0.27 µM. This compound also displayed an IC50 in series [6] of 0.0122 µM.
Consider `COc1ccc(S(=O)(=O)N2CCN(Cc3ccccc3)CC2)c(C(=O)NO)c1OC` [Example 52, N-Hydroxy-2,3-dimethoxy-6-[[4-(phenylmethyl)-1-piperazinyl]sulfonyl]benzamide, monohydrochloride], for which the half-inhibitory concentration (IC50) is 4 µM in series [1], 1.5 µM in series [2] and more than 10 µM in series [6].
Consider `CCCCOc1ccc(OC2CCN(S(=O)(=O)c3ccc(OC)c(OC)c3C(=O)NO)CC2)cc1` [Example 54, 6-[[4-(4-Butoxyphenoxy)-1-piperidinyl]sulfonyl]-N-hydroxy-2,3-dimethoxybenzamide], for which the IC50 in series [1] was 0.0016 µM; in series [2], 0.0008 µM; in series [3], 0.002 µM; in series [7] it was more than 10 µM; in series [4] it was 0.0316 µM; in series [5], 0.2 µM. Besides, the half-maximal inhibitory concentration (IC50) in series [6] was determined as 0.07 µM.
For the compound `CCCCOc1ccc(N2CCN(S(=O)(=O)c3ccc(OC)c(OC)c3C(=O)NO)CC2)cc1C` [Example 56, 6-[[4-(4-Butoxy-3-methylphenyl)-1-piperazinyl]sulfonyl]-N-hydroxy-2,3-dimethoxybenzamide, monohydrochloride], the IC50 is 0.02 µM in series [1], 0.009 µM in series [2] and more than 10 µM in series [7].
For `COc1cccc(OC2CCN(S(=O)(=O)c3ccc(OC)c(OC)c3C(=O)NO)CC2)c1` [Example 57], the results for the IC50 in series [1], in series [2] and in series [7] were 0.25 µM, 0.0121 µM and more than 10 µM, respectively.
Turning to `CNC(=O)[C@@H](NC(=O)[C@H](CC(C)C)[C@H](O)C(=O)NO)C(C)(C)C` [marimastat, Marimastat], the “most common drug-related toxicity” value in series [8] (clinical trials, patients) is “musculoskeletal pain and stiffness”. Moreover, the “rise of cancer-specific antigens (surrogate markers for biological activity)” value in series [8] (patients with advanced, rapidly progressive, treatment-refractory solid tumor cancers) is “dose-related reduction in the rise of cancer-specific antigens”.
